Test results reported in patent US9273077B2, “Phosphorus derivatives as kinase inhibitors” (ARIAD Pharmaceuticals, Inc., priority 2008, dated 2016).
pIC50: −log10 of the molar value.

Biological target: T1, ALK (Homo sapiens, UniProt Q9UM73)
T1 construct: Kinases are expressed as either kinase domains or full length constructs fused to glutathione S-transferase (GST) or polyHistidine tagged fusion proteins; made in house; host or cells: E. coli or Baculovirus-High Five (not specified which for ALK)
T1 sequence (Q9UM73 19-1620): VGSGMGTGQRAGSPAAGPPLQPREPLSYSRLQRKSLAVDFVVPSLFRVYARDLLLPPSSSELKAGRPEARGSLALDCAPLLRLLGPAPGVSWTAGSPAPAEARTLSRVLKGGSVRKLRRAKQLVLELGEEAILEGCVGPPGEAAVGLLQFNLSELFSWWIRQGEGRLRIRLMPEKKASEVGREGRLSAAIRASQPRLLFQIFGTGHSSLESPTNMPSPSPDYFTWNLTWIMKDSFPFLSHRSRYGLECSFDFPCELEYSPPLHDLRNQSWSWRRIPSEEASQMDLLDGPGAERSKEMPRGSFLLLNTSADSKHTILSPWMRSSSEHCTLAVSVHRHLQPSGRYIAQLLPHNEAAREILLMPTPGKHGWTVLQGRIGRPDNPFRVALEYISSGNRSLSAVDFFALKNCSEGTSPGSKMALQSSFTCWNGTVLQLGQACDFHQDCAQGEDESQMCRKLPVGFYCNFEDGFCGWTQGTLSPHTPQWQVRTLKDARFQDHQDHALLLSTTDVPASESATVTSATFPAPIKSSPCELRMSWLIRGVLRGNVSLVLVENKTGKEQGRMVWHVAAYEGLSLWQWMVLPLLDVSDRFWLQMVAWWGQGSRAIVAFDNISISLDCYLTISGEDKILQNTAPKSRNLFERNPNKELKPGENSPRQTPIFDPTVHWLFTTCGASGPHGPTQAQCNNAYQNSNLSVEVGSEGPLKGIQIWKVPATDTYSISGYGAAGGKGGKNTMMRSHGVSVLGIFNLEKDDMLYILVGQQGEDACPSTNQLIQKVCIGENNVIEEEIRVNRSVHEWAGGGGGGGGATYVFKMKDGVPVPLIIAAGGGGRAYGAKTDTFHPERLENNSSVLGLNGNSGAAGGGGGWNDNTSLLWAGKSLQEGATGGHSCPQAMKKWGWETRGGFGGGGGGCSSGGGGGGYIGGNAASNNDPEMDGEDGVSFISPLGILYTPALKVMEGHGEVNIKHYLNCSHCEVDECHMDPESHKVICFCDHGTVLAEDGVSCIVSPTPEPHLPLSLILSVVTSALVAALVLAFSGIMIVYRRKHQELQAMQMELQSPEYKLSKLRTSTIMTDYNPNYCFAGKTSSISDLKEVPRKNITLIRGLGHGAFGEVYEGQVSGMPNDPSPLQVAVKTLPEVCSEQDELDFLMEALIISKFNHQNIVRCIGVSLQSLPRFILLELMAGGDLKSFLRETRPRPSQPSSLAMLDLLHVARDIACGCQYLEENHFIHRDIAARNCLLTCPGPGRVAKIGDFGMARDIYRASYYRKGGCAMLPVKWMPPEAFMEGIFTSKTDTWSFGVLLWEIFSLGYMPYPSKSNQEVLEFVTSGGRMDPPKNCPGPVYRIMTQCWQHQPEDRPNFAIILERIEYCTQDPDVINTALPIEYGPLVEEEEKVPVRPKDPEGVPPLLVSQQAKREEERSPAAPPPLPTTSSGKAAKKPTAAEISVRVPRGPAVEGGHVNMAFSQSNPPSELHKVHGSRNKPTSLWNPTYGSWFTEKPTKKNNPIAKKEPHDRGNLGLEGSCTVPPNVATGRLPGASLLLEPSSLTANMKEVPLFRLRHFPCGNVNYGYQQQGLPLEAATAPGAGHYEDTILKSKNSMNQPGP
Experiment: inhibitory potency against ALK (kinase inhibition assay)
Assay type: biochemical
Source text: More specifically, the compounds described herein are screened for kinase inhibition activity as follows. Kinases suitable for use in the following protocol include, but are not limited to: ALK, Jak2, b-Raf, c-Met, Tie-2, FLT3, Abl, Lck, Lyn, Src, Fyn, Syk, Zap-70, Itk, Tec, Btk, EGFR, ErbB2, Kdr, FLT1, Tek, InsR, and AKT.
Kinases are expressed as either kinase domains or full length constructs fused to glutathione S-transferase (GST) or polyHistidine tagged fusion proteins in either E. coli or Baculovirus-High Five expression systems. They are purified to near homogeneity by affinity chromatography as previously described (Lehr et al., 1996; Gish et al., 1995). In some instances, kinases are co-expressed or mixed with purified or partially purified regulatory polypeptides prior to measurement of activity.
Kinase activity and inhibition can be measured by established protocols (see e.g., Braunwalder et al., 1996). In such cases, the transfer of ^33PO4 from ATP to the synthetic substrates poly(Glu, Tyr) 4:1 or poly(Arg, Ser) 3:1 attached to the bioactive surface of microtiter plates is taken as a measure of enzyme activity. After an incubation period, the amount of phosphate transferred is measured by first washing the plate with 0.5% phosphoric acid, adding liquid scintillant, and then counting in a liquid scintillation detector. The IC50 is determined by the concentration of compound that causes a 50% reduction in the amount of ^33P incorporated onto the substrate bound to the plate.
For example, in one method, compounds can be tested for their ability to inhibit kinase activity of baculovirus-expressed ALK using a modification of the ELISA protocol reported for trkA in Angeles, T. S. et al., Anal. Biochem. 1996, 236, 49-55, which is incorporated herein by reference. Phosphorylation of the substrate, phopholipase C-gamma (PLC- ? ) generated as a fusion protein with glutathione-S-transferase (GST) as reported in rotin, D. et al., EMBO J. 1992, 11, 559-567, which is incorporated by reference, can be detected with europium-labeled anti-phosphotyrosine antibody and measured by time-resolved fluorescence (TRF). […] Detection of the phosphorylated product can be performed by adding 100 ? L/well of Eu-N1 labeled PT66 antibody (Perkim Elmer #AD0041). Incubation at 37 degrees C. then proceeds for one hour, followed by addition of 100 ? L enhancement solution (for example Wallac #1244-105). The plate is gently agitated and after thirty minutes, the fluorescence of the resulting solution can be measured (for example using EnVision 2100 (or 2102) multilabel plate reader from Perkin Elmer).
Data analysis can then be performed. IC50 values can be calculated by plotting percent inhibition versus log10 of concentration of compound.
The inhibition of ALK tyrosine kinase activity can also be measured using the recombinant kinase domain of the ALK in analogy to VEDG-R kinase assay described in J. Wood et al., Cancer Res 2000, 60, 2178-2189. In vitro enzyme assays using GST-ALK protein tyrosine kinase can be performed in 96-well plate as a filter binding assay in 20 mMTris.HCl, pH 7.5, 3 mM MgCl2, 10 mM MnCl2, […], 0.1 ? Ci/assay (=30 ? L) [ ? -^33P]-ATP, 2 ? M ATP, 3 ? g/mL poly (Glu, tyr 4:1) Poly-EY (sigma P-0275), 1% DMSO, 25 ng ALK enzyme. Assays can be incubated for 10 min, at ambient temperature. Reactions can be terminated by adding 50 ? L of 125 mM EDTA, and the reaction mixture can be transferred onto a MAIP Multiscreen plate (Millipore, Bedford, Mass.) previously wet with methanol, and rehydrated for 5 minutes with water. Following washing (0.5% H3PO4), plates can be counted in a liquid scintillation counter. IC50 values are calculated by linear regression analysis of the percentage inhibition.

pIC50 | SMILES
< 8.00 | CP(C)(=O)c1ccc(Nc2ncc(C(F)(F)F)c(NCCc3ccc(S(N)(=O)=O)cc3)n2)cc1 [Example 5, 4-(2-{[2-{[4-(dimethylphosphoryl)phenyl]amino}-5-(trifluoromethyl)pyrimidin-4-yl]amino}ethyl)benzenesulfonamide]
< 8.00 | CP(C)(=O)c1ccc(Nc2ncc(C(F)(F)F)c(NN3CCOCC3)n2)cc1 [Example 8, N^2-[4-(dimethylphosphoryl)phenyl]-N^4-(morpholin-4-yl)-5-(trifluoromethyl)pyrimidine-2,4-diamine]
< 8.00 | CP(C)(=O)c1ccc(Nc2ncc(C(F)(F)F)c(NC3CCCO3)n2)cc1 (centres unmarked) [Example 6, N^2-[4-(dimethylphosphoryl)phenyl]-N^4-(tetrahydrofuran-2-yl)-5-(trifluoromethyl)pyrimidine-2,4-diamine]
> 8.70 | Cc1cc(P(C)(C)=O)ccc1Nc1ncc(Cl)c(Nc2ccccc2S(=O)(=O)C(C)C)n1 [Example 23, 5-Chloro-N^2-[4-(dimethylphosphoryl)-2-methylphenyl]-N-[2-(propan-2-ylsulfonyl)phenyl]pyrimidine-2,4-diamine]
< 8.00 | CP(C)(=O)c1ccc(Nc2ncc(C(F)(F)F)c(NCC34CC5CC(CC(C5)C3)C4)n2)cc1 [Example 12, N^2-[4-(dimethylphosphoryl)phenyl]-N′-(tricyclo[3.3.1.1^3,7]dec-1-ylmethyl)-5-(trifluoromethyl)pyrimidine-2,4-diamine]
